{"source": "patent US20020019373A1", "about": "“Combinations of bisphosphonates and estrogenic agents” (American Home Products Corporation, priority 2000, published 2002)", "origin": "cited, not measured here", "test_system": "Paget's disease of the bone", "conditions": "approved by the FDA for Paget's disease of the bone (30-mg tablets)"}
{"smiles": "O=P(O)(O)C(O)(Cc1cccnc1)P(=O)(O)O", "note": "[Risedronate]", "values": [{"measurement": "effectiveness in clinical trials", "value": "effective"}]}
